Laboratory results from patent publication US20260092061A1, “COMPOUNDS FOR TARGETED PROTEIN DEGRADATION” (Amphista Therapeutics Limited, priority 2022, published 2026).

Molecular target: T1, BRD9 (Homo sapiens, UniProt Q9H8M2)
T1 sequence (Q9H8M2 1-597): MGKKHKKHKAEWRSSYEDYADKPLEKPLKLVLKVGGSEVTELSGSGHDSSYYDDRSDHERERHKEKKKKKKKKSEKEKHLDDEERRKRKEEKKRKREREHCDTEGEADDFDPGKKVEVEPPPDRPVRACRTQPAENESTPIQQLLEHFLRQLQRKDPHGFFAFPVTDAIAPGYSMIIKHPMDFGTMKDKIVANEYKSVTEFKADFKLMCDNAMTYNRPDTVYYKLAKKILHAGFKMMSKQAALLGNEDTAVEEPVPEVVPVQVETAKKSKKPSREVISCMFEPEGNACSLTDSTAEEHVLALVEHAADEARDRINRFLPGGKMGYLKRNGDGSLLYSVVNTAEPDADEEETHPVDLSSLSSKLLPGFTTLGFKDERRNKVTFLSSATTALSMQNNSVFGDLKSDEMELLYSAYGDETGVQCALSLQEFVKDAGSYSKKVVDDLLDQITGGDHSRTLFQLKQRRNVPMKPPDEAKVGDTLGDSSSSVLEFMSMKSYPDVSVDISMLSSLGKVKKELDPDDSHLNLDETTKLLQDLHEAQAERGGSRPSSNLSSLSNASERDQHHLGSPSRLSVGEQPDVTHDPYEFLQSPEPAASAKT
Test: Degradation of BRD9 (IF), immunofluorescence in MV4-11 cells, 24 hours (Assay Protocol 2)
Type: cell-based
Parameters: A suspension of MV4-11 cells (ATCC CRL-9591) was prepared; host or cells: MV4-11
Settings: BRD9 degradation; for DC50: Assay protocol 2, read-out: DC50; for Dmax: MV4-11, Assay protocol 2, read-out: Dmax
In short: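 % BRD9 remaining, scaled between DMSO (high) and 100 nM CFT-8634 (low) control wells, derives from mean Alexa 647 contrast in central nuclei by high-content imaging. MV4-11 cells had 24 h compound exposure at 37° C. before PFA fixation, Triton permeabilisation and anti-BRD9 E4Q3F immunostaining.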

SMILES	DC50	Dmax
COc1cc(-c2cn(C)c(=O)c(C)c2C)cc(OC)c1CN1CCN(Cc2ccc3c(c2)[C@H](C)N(C(=O)/C(C#N)=C/C(C)(C)CF)CC3)C2(CC2)C1 (single isomer, unassigned) [Compound B201, (E/Z)-2-(7-((7-(2,6-dimethoxy-4-(1,4,5-trimethyl-6-oxo-1,6dihydropyridin-3-yl)benzyl)-4,7-diazaspiro[2.5]octan-4-yl)methyl)-1-methyl-1,2,3,4-tetrahydroisoquinoline-2-carbonyl)-5-fluoro-4,4-dimethylpent-2-enenitrile]	25 to 1000 nM	40 to 70%
COc1cc(-c2cn(C)c(=O)c(C)c2C)cc(OC)c1CN1CCN(Cc2ccc3c(c2)[C@@H](C)N(C(=O)/C(C#N)=C/C(C)(C)CF)CC3)C2(CC2)C1 (single isomer, unassigned) [Compound B202, (E/Z)-2-(7-((7-(2,6-dimethoxy-4-(1,4,5-trimethyl-6-oxo-1,6-dihydropyridin-3-yl)benzyl)-4,7-diazaspiro[2.5]octan-4-yl)methyl)-1-methyl-1,2,3,4-tetrahydroisoquinoline-2-carbonyl)-5-fluoro-4,4-dimethylpent-2-enenitrile]	< 1.25 nM	> 75%
COc1cc(-c2cn(C)c(=O)c(C)c2C)cc(OC)c1CN1CCN(Cc2ccc3c(c2)C(C)N(C(=O)/C(C#N)=C/C(C)(C)CCl)CC3)C2(CC2)C1 (single isomer, unassigned) [Compound B203, (E/Z)-5-chloro-2-(7-((7-(2,6-dimethoxy-4-(1,4,5-trimethyl-6-oxo-1,6-dihydropyridin-3-yl)benzyl)-4,7-diazaspiro[2.5]octan-4-yl)methyl)-1-methyl-1,2,3,4-tetrahydroisoquinoline-2-carbonyl)-4,4-dimethylpent-2-enenitrile]	1.25 to 10 nM	> 75%
COc1cc(-c2cn(C)c(=O)c(C)c2C)cc(OC)c1CN1CCN(Cc2ccc3c(c2)[C@H](C)N(C(=O)/C(C#N)=C/C(C)(C)C)CC3)[C@H](C)C1 (single isomer, unassigned) [Compound C3]	25 to 1000 nM	40 to 70%
COc1cc(-c2cn(C)c(=O)c(C)c2C)cc(OC)c1CN1CCN(Cc2cccc3c2CCN(C(=O)/C(C#N)=C/C(C)(C)C)[C@H]3C)CC12CC2 (single isomer, unassigned) [Compound C4, (E/Z)-2-(5-((4-(2,6-dimethoxy-4-(1,4,5-trimethyl-6-oxo-1,6-dihydropyridin-3-yl)benzyl)-4,7-diazaspiro[2.5]octan-7-yl)methyl)-1-methyl-1,2,3,4-tetrahydroisoquinoline-2-carbonyl)-4,4-dimethylpent-2-enenitrile]	1.25 to 10 nM	> 75%
COc1cc(-c2cn(C)c(=O)c(C)c2C)cc(F)c1CN1CCN(Cc2ccc3c(c2)[C@@H](C)N(C(=O)/C(C#N)=C/C(C)(C)C)CC3)C2(CC2)C1 (single isomer, unassigned) [Compound C5, (E/Z)-2-(7-((7-(2-fluoro-6-mehtoxy-4-(1,4,5-trimethyl-6-oxo-1,6-dihydropyridin-3-yl)benzyl)-4,7-diazaspiro[2.5]octan-4-yl)methyl)-1-methyl-1,2,3,4-tetrahydroisoquinoline-2-carbonyl)-4,4-dimethylpent-2-enenitrile]	10 to 25 nM	> 75%
COc1cc(-c2cn(C)c(=O)c3[nH]ncc23)cc(OC)c1CN1CCN(Cc2ccc3c(c2)[C@@H](C)N(C(=O)/C(C#N)=C/C(C)(C)C)CC3)C2(CC2)C1 (single isomer, unassigned) [Compound C6, (E/Z)-2-(7-((7-(2,6-dimethoxy-4-(6-methyl-7-oxo-6,7-dihydro-1H-pyrazolo[3,4-c]pyridin-4-yl)benzyl)-4,7-diazaspiro[2.5]octan-4-yl)methyl)-1-methyl-1,2,3,4-tetrahydroisoquinoline-2-carbonyl)-4,4-dimethylpent-2-enenitrile]	< 1.25 nM	> 75%
COc1cc(-c2cn(C)c(=O)c(C)c2C)cc(OC)c1CN1CCCN(Cc2cccc3c2CCN(C(=O)/C(C#N)=C/C(C)(C)CF)[C@@H]3C)CC1 (single isomer, unassigned) [Compound C19]	1.25 to 10 nM	> 75%

Second part, the compound after the results:

DC50	Dmax	SMILES
< 1.25 nM	> 75%	COc1cc(-c2cn(C)c(=O)c(C)c2C)cc(OC)c1CN1CCN(Cc2cccc3c2CCN(C(=O)/C(C#N)=C/C(C)(C)F)[C@@H]3C)C2(CC2)C1 (single isomer, unassigned) [Compound C20, (E/Z)-2-(5-((7-(2,6-dimethoxy-4-(1,4,5-trimethyl-6-oxo-1,6-dihydropyridin-3-yl)benzyl)-4,7-diazaspiro[2.5]octan-4-yl)methyl)-1-methyl-1,2,3,4-tetrahydroisoquinoline-2-carbonyl)-4-fluoro-4-methylpent-2-enenitrile]
10 to 25 nM	> 75%	COc1cc(-c2cn(C)c(=O)c(C)c2C)cc(OC)c1CN1CCN(Cc2cccc3c2CCN(C(=O)/C(C#N)=C\C(C)(C)CF)C3C(C)C)[C@@H](C)C1 (single isomer, unassigned) [Compound C26]
1.25 to 10 nM	> 75%	COc1cc(-c2cn(C)c(=O)c(C)c2C)ccc1OC1CCN(Cc2cccc3c2CCN(C(=O)/C(C#N)=C/C(C)(C)C)[C@H]3C)CC1 (single isomer, unassigned) [Compound C31, (E/Z)-2-(5-((4-(2-methoxy-4-(1,4,5-trimethyl-6-oxo-1,6-dihydropyridin-3-yl)phenoxy)piperidin-1-yl)methyl)-1-methyl-1,2,3,4-tetrahydroisoquinoline-2-carbonyl)-4,4-dimethylpent-2-enenitrile]
1.25 to 10 nM	> 75%	COc1cc(-c2cn(C)c(=O)c(C)c2C)cc(OC)c1CN1CCN(Cc2ccc3c(c2)[C@H](C)N(C(=O)/C(C#N)=C/C(C)(C)CF)CC3)CC12CC2 (single isomer, unassigned) [Compound C33]
25 to 1000 nM	40 to 70%	COc1cc(-c2cn(C)c(=O)c(C)c2C)cc(OC)c1CN1CCN(Cc2ccc3c(c2)[C@@H](C)N(C(=O)/C(C#N)=C/C(C)(C)CF)CC3)CC12CC2 (single isomer, unassigned) [Compound C34]
< 1.25 nM	> 75%	COc1cc(-c2cn(C)c(=O)c(C)c2C)cc(OC)c1CN1CCN(Cc2ccc3c(c2)[C@@H](C)N(C(=O)/C(C#N)=C/C(C)(C)C)CC3)C2(CC2)C1 (single isomer, unassigned) [Compound C35, (E/Z)-2-(7-((7-(2,6-dimethoxy-4-(1,4,5-trimethyl-6-oxo-1,6-dihydropyridin-3-yl)benzyl)-4,7-diazaspiro[2.5]octan-4-yl)methyl)-1-methyl-1,2,3,4-tetrahydroisoquinoline-2-carbonyl)-4,4-dimethylpent-2-enenitrile]
10 to 25 nM	40 to 70%	COc1cc(-c2cn(C)c(=O)c(C)c2C)cc(OC)c1CN1CCN(Cc2ccc3c(c2)[C@H](C)N(C(=O)/C(C#N)=C/C(C)(C)C)CC3)C2(CC2)C1 (single isomer, unassigned) [Compound C36, (E/Z)-2-(7-((7-(2,6-dimethoxy-4-(1,4,5-trimethyl-6-oxo-1,6-dihydropyridin-3-yl)benzyl)-4,7-diazaspiro[2.5]octan-4-yl)methyl)-1-methyl-1,2,3,4-tetrahydroisoquinoline-2-carbonyl)-4,4-dimethylpent-2-enenitrile]
< 1.25 nM	> 75%	COc1cc(-c2cn(C)c(=O)c(C)c2C)cc(OC)c1CN1CCN(Cc2ccc3c(c2)[C@@H](C)N(C(=O)/C(C#N)=C/C2(OC)CC2)CC3)C2(CC2)C1 (single isomer, unassigned) [Compound C37, (E/Z)-2-(7-((7-(2,6-dimethoxy-4-(1,4,5-trimethyl-6-oxo-1,6-dihydropyridin-3-yl)benzyl)-4,7-diazaspiro[2.5]octan-4-yl)methyl)-1-methyl-1,2,3,4-tetrahydroisoquinoline-2-carbonyl)-3-(1-methoxycyclopropyl)acrylonitrile]
1.25 to 10 nM	70 to 75%	COc1cc(-c2cn(C)c(=O)c(C)c2C)cc(OC)c1CN1CCN(Cc2ccc3c(c2)C(C)N(C(=O)/C(C#N)=C/C2(C)CCC(F)(F)CC2)CC3)C2(CC2)C1 (single isomer, unassigned) [Compound C38, (E/Z)-3-(4,4-difluoro-1-methylcyclohexyl)-2-(7-((7-(2,6-dimethoxy-4-(1,4,5-trimethyl-6-oxo-1,6-dihydropyridin-3-yl)benzyl)-4,7-diazaspiro[2.5]octan-4-yl)methyl)-1-methyl-1,2,3,4-tetrahydroisoquinoline-2-carbonyl)acrylonitrile]
< 1.25 nM	> 75%	COc1cc(-c2cn(C)c(=O)c(C)c2C)cc(OC)c1CN1CCN(Cc2ccc3c(c2)[C@@H](C)N(C(=O)/C(C#N)=C/C(C)(C)O)CC3)C2(CC2)C1 (single isomer, unassigned) [Compound C39, (E/Z)-2-(7-((7-(2,6-dimethoxy-4-(1,4,5-trimethyl-6-oxo-1,6-dihydropyridin-3-yl)benzyl)-4,7-diazaspiro[2.5]octan-4-yl)methyl)-1-methyl-1,2,3,4-tetrahydroisoquinoline-2-carbonyl)-4-hydroxy-4-methylpent-2-enenitrile]
